Test results published in US20240279232A1, “USE OF SUBSTITUTED 5-(4-METHYL-6-PHENYL-4H-BENZO[F]IMIDAZO[1,5-A][1,4] DIAZEPIN-3-YL)-1,2,4-O[…] THE TREATMENT OF INFLAMMATORY CONDITIONS” (priority 2021, published 2024).

Legend:
[1] = molecular target: T1, KOR (κ opioid receptor) (Homo sapiens, UniProt P41145); assay: KOR radioligand binding ([3H]-U69593, HEK293 cell homogenates); details: [3H]-U69593
T1 construct: expressed in transfected cells; host or cells: HEK293 (stably transfected)

[2] = molecular target: T2, DOR (δ opioid receptor) (Homo sapiens, UniProt P41143); assay: DOR radioligand binding ([3H]-DADLE, HEK293 cell homogenates); details: Percent inhibition at 10,000 nM; [3H]-DADLE
T2 construct: expressed in transfected cells; host or cells: HEK293
T2 sequence (P41143 whole entry): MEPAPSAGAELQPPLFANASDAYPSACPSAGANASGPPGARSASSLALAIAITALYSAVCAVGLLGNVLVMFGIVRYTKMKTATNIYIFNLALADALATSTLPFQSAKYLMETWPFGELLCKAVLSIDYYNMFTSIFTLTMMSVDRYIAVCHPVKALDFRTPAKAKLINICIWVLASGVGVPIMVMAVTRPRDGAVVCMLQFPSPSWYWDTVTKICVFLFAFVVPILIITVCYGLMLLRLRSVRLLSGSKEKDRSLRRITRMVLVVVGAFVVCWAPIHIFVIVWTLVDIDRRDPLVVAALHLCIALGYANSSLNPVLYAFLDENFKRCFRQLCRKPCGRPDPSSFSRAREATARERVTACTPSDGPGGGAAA

[3] = system: BZR (benzodiazepine site of GABAAR); assay: GABAAR/BZR binding, rat brain homogenate with 3H-flunitrazepam; details: rat brain homogenate, 3H-flunitrazepam
Procedure, shortened: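 Rat brain homogenate incubated with 3H-flunitrazepam near its Kd, typically 90 min at room temperature in the dark; nonspecific binding defined with 10 μM reference compound. Filtration on PEI-soaked mats, scintillation counting; compounds screened at 10,000 nM, those above 50% displacement taken to concentration–response for Ki by nonlinear regression (n=6).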

[4] = molecular target: T3, human KOR (Homo sapiens, UniProt P41145); assay: BRET recruitment assay (GαoA) in HEK293T cells; assay type: cell-based; details: for KOR agonism (in words): BRET recruitment assay
T3 construct: expressed in transfected cells; host or cells: HEK293T
T3 sequence (P41145 whole entry): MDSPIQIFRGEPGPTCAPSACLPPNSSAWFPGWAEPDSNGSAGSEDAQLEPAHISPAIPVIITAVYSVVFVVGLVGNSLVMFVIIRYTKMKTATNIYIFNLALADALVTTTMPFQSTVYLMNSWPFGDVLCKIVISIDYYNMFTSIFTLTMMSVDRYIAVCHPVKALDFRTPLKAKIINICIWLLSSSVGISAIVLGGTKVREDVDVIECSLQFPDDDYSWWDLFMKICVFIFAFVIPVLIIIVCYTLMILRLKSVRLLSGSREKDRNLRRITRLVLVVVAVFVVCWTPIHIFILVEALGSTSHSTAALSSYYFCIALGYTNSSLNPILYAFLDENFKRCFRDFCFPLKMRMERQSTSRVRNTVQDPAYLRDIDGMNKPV
T3 sequence (P09471 2-354 partner limits assumed): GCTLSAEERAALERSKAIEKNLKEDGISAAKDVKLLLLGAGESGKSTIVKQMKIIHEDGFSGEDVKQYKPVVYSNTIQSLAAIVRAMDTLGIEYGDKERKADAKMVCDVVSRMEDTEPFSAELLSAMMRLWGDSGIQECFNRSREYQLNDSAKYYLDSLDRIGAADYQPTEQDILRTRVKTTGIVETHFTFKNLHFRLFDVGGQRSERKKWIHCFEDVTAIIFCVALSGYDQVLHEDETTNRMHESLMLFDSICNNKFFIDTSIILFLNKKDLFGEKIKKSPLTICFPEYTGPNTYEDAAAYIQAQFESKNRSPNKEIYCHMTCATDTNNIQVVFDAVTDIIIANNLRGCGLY
T3 sequence (P16520 whole entry partner): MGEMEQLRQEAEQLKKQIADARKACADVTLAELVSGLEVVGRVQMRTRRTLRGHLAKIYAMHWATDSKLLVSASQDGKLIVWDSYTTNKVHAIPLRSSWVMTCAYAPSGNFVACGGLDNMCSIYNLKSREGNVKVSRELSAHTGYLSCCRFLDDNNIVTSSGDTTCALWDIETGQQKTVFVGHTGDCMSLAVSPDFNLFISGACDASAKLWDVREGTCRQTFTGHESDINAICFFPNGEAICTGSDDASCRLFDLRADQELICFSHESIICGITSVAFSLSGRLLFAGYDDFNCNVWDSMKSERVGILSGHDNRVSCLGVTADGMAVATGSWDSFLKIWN
T3 sequence (Q9UK08 1-67 partner limits assumed): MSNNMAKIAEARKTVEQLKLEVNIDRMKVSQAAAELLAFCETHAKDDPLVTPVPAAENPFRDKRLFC
Procedure: HEK293 cells were transfected with GαoA-RLuc, Gβ3, Gγ8-GFP2 and human KOR and treated with increasing concentrations of GL-I-30 or full agonist salvinorin A.
The BRET recruitment assays were performed in HEK293T cells according to previously reported procedures with minor modifications. Briefly, the cells were co-transfected overnight with GαoA-RLuc, Gβ3, Gγ8-GFP2 and human KOR receptor at a 1:1:1:1 ratio. The next day, cells were seeded (˜40,000 cells/well) into poly-L-Lysine coated 96-well white clear bottom cell culture plates in DMEM containing 1% dialyzed FBS. 24 hours later, the 96-well plates bottom were covered with white backing (PerkinElmer) and the culture medium was removed. Immediately, the cells were washed with 80 μL/well of assay buffer (1× HBSS, 20 mM HEPES, 1 mg/ml BSA, pH 7.4). Then the cells were treated with 80 μL of drugs in assay buffer for 10 min at room temperature, follow by addition of 20 μL/well of RLuc substrate and incubated for another 10 min. Plates were read in a Mithras LB940 reader for the RLuc Luminescence (400 nm) and GFP2 (515 nm) emission and the ratio of GFP2/RLuc (n=24) was analyzed by non-linear regression using GraphPad Prism 8.

[5] = molecular target: T4, MOR (μ opioid receptor) (Homo sapiens, UniProt P35372); assay: MOR radioligand binding ([3H]-DAMGO, HEK293 cell homogenates); details: [3H]-DAMGO
T4 construct: expressed in transfected cells; host or cells: HEK293
T4 sequence (P35372 whole entry, species assumed): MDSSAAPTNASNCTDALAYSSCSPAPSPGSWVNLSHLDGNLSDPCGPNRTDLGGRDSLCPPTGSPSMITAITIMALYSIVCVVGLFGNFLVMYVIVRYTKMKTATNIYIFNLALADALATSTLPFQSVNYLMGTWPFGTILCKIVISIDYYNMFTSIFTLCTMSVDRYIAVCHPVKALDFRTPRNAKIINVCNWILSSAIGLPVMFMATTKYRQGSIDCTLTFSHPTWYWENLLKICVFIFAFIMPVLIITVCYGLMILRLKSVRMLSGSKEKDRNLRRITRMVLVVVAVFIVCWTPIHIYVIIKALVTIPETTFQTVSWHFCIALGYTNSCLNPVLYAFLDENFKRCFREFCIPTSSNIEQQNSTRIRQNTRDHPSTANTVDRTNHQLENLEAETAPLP

[6] = system: Swiss Webster mice; assay: Rotarod test; details: 5 mg/kg
[7] = system: HEPG2; assay: Viability assay (CellTiter-Glo), HEPG2; assay type: cell-based, human; details: 120 μM, CellTiter-Glo
[8] = system: RAW macrophages; assay: Cell viability (CellTiter-Glo), RAW macrophages; assay type: cell-based, mouse; details: CellTiter-Glo
[9] = system: RAW macrophages; assay: NO production (Griess assay), LPS/IFNγ-activated RAW264.7 macrophages; assay type: cell-based, mouse; details: 10 μM, 24 hours, 1 μM GABA, LPS/IFNγ
[10] = system: HEK293; assay: Viability assay (CellTiter-Glo), HEK293; assay type: cell-based, human; details: 120 μM, CellTiter-Glo
[11] = system: Mouse microglia; assay: NO production (Griess assay), LPS/IFNγ-activated mouse microglia; assay type: cell-based; details: 10 μM, 24 hours, 1 μM GABA, LPS/IFNγ
[12] = system: Mouse microglia; assay: Cell viability (CellTiter-Glo), mouse microglia; assay type: cell-based; details: 50 μM, CellTiter-Glo
Procedure, shortened: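 Mouse microglia (1×10^6 cells/mL) activated with 50 ng/ml LPS plus 150 U/mL IFNγ, incubated with compounds ~24 h at 37° C. Viability of remaining cells read by CellTiter-Glo luminescence after supernatant removal for Griess NO assay; […].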

[13] = Percent inhibition at 10,000 nM

T1 sequence (P41145 whole entry): as the sequence (P41145 whole entry) above

Row | SMILES | Cell viability (%) HEPG2 120 μM [7] | Cell viability (%) RAW macrophages 50 μM [8] | Inhibition of NO production (%) RAW macrophages 10 μM [9] | Cell viability (%) HEK293 120 μM [10] | Inhibition of NO production (%) Mouse microglia 10 μM [11] | Cell viability (%) Mouse microglia 50 μM [12] | further results
1 | C#Cc1ccc2c(c1)C(c1ccccc1F)=NC(C)c1c(C(=O)OC(C)(C)C)ncn1-2 (stereo not drawn) [GL-I-30] |  |  |  |  |  |  | KOR % [1, 13]: 95%; Ki ([1]; concentration-dependent, read-out: KOR (Ki)): 27 nM; DOR % [2]: 7%; BZR % [3, 13]: 96%; Ki [3]: 177 nM; KOR agonism (in words) [4]: full KOR agonism; KOR agonism (in words) ([4]; listed as GL-1-30): full KOR agonist; efficacy in comparison to full agonist salvinorin A ([4]; BRET, HEK293T cells): 100%; EC50 ([4]; BRET, HEK293T cells, read-out: EC50, recruitment of GαoA protein to KOR): 32.3 nM; MOR % [5, 13]: 54%; Ki ([5]; read-out: MOR affinity Ki): 1850 nM
2 | CN1C(=O)CN=C(c2ccccc2)c2cc(Cl)ccc21 [diazepam, reference compound] |  |  |  |  |  |  | sedation (rotarod) [6]: sedating
3 | C#Cc1ccc2c(c1)C(c1ccccc1F)=NCc1c(C(=O)OCCCO)ncn1-2 [GL-II-80] | 100 ± 9% | 100 ± 2% | 5 ± 3% | 76 ± 8% | 38 ± 8% | 85 ± 1% | 
4 | C#Cc1ccc2c(c1)C(c1ccccc1)=NCC(=O)N2C [QH-II-66] | 100 ± 4% | 100 ± 12% | 17 ± 6% | 81 ± 2% | 54 ± 9% | 97 ± 11% | 
5 | CC1N=C(c2ccccc2F)c2cc(Br)ccc2-n2cnc(C(=O)[O-])c21.[Na+] (stereo not drawn) [GL-IV-18] | 80 ± 14% | 98 ± 5% | 10 ± 7% | 88 ± 5% | 63 ± 9% | 81 ± 10% | 
6 | CC1N=C(c2ccccn2)c2cc(Br)ccc2NC1=O (stereo not drawn) [GL-II-05] | 92 ± 5% | 100 ± 11% | 0 ± 1% | 94 ± 3% | 12 ± 5% | 88 ± 8% | 
7 | C#Cc1ccc2c(c1)C(c1ccccc1F)=NC(C)c1c(C(=O)[O-])ncn1-2.[Na+] (stereo not drawn) [GL-IV-17] | 93 ± 8% | 100 ± 5% | 5 ± 5% | 67 ± 5% | 41 ± 5% | 89 ± 9% | 
8 | CCOC(=O)c1ncn2c1CN=C(c1ccccn1)c1cc(C3CC3)ccc1-2 [GL-IV-05] | 100 ± 10% | 100 ± 6% | 14 ± 3% | 47 ± 3% | 59 ± 4% | 88 ± 12% | 
9 | CC1N=C(c2ccccc2F)c2cc(C#C[Si](C)(C)C)ccc2-n2cnc(-c3cnco3)c21 (stereo not drawn) [GL-III-72] | 100 ± 3% | 77 ± 4% | 57 ± 7% | 64 ± 8% | 21 ± 7% | 100 ± 10% | 
10 | C#Cc1ccc2c(c1)C(c1ccccc1F)=NC(C)c1c(C(=S)NC3CC3)ncn1-2 (stereo not drawn) [GL-III-87] | 100 ± 5% | 100 ± 7% | 0 ± 1% | 90 ± 10% | 23 ± 7% | 100 ± 2% | 
11 | C#Cc1ccc2c(c1)C(c1ccccc1F)=NC(C)C(=O)N2C (stereo not drawn) [GL-III-24] | 91 ± 12% | 100 ± 12% | 68 ± 8% | 78 ± 6% | 67 ± 12% | 98 ± 5% | 
12 | C#Cc1ccc2c(c1)C(c1ccccn1)=N[C@H](C)C(=O)N2 [GL-III-27] | 77 ± 7% | 100 ± 4% | 1 ± 3% | 91 ± 2% | 29 ± 8% | 86 ± 8% | 
13 | C#Cc1ccc2c(c1)C(c1ccccc1F)=NC(C)c1c(C(=S)N(C)C)ncn1-2 (stereo not drawn) [GL-III-85] | 100 ± 11% | 100 ± 10% | 0 ± 2% | 70 ± 12% | 34 ± 8% | 84 ± 12% | 
14 | CC1N=C(c2ccccc2F)c2cc(Cl)ccc2NC1=O (stereo not drawn) [GL-III-52] | 81 ± 9% | 97 ± 8% | 2 ± 2% | 73 ± 8% | 57 ± 11% | 85 ± 8% | 
15 | CCNC(=O)c1ncn2c1[C@@H](C)N=C(c1ccccc1F)c1cc(Br)ccc1-2 [GL-III-67] | 100 ± 9% | 100 ± 7% | 4 ± 2% | 66 ± 6% | 33 ± 1% | 85 ± 10% | 
16 | C#Cc1ccc2c(c1)C(c1ccccc1F)=N[C@@H](C)C(=O)N2 [GL-I-64] | 100 ± 9% | 100 ± 5% | 3 ± 3% | 77 ± 13% | 24 ± 3% | 81 ± 5% | 
